Assay results: patent US9249115B2, “N,N1 substituted piperazines having combined antiaggregant, anticoagulant and vasodilatory activity, and method for producing same” (Vertex Closed Joint Stock Company, priority 2011, dated 2016)

Columns and labels:
[1] = tested on: Collagen-induced thrombocyte aggregation; experiment: Collagen-induced thrombocyte aggregation, donor human thrombocyte enriched plasm; assay type: cell-based; settings: collagen inductor; for MA, %: human thrombocyte plasm
Experimental: (§1) The study of antiaggregant and anticoagulant properties of N,N′-substituted piperazines on the sample of donor human blood. The blood was collected by donor ulnar vein punction with dry sharp needle without syringe. The administration of drugs that influence on thrombocyte function was cancelled in 7÷10 days before the experiment.
(§2) In graduated plastic centrifuge tube 1 ml of 3.8% basic trisodium citrate solution with pH=7.4 was placed. The ulnar vein was punctuated, the freely effluent blood was collected up to 10 ml mark, the mixture was instantly stirred to prevent air bubbles appearance. The collected and stabilized blood was split in two 5 ml portions in two tubes.
(§3) To obtain thrombocyte enriched plasm the stabilized blood was spinned at 1000 rpm (150 g) for 8 min at room temperature. The repeated spinning of the blood at 3200 rpm (2300 g) for 20 min at 22° C. yielded thrombocyte depleted plasm.
(§4) The study of anticoagulant activity was done within 2 h after thrombocyte enriched plasm obtaining. The plasm was normalized to achieve thrombocyte concentration of 200-250×10^9/L by addition of thrombocyte-free plasm. The concentration of thrombocytes was measured on SOLAR AR 2110 analyzer.
(§5) Antiaggregant properties of N,N′-substituted piperazines were evaluated by their influence on thrombocyte aggregation in tests with ADP-, collagen- and ristocetin-induced aggregation. To dissolve N,N′-substituted piperazines and to dilute reagents Tris-HCl-buffer with pH=7.4 was used.
(§6) As the general characteristic of thrombocyte aggregation activity the maximum amplitude (MA) of aggregation was taken on. That is the peak value of transmittance coefficient of the sample after aggregation agent introduction expressed in % relative to the transmittance of thrombocyte-free plasm. The response was registered on ascending linear segment of aggregation curve for 16 s.
(§7) The measurements were done using 4-channel CHRONO-LOG 490-4D analyzer (CHRONO-LOG, USA). The temperature in the cell was 37° C., the spinning speed of magnetic stirrer was 1200 rpm.
(§8) In a cuvette 0.5 ml of N,N′-substituted piperazine solution was placed, then 0.4 ml of normalized thrombocyte plasm was added. The mixture was stirred and incubated at 37° C. for 5 min. The cuvette was placed in aggregometer, then 0.05 ml of aggregation inductor solution was added (ADP or collagen or ristocetin). Thrombocyte aggregation was measured for 3 min.
In collagen-induced thrombocyte aggregation test CHRONO-PAR COLLAGEN reagent (CHRONO-LOG, USA) was diluted with buffer solution until collagen concentration reached 10 µg/ml.

[2] = tested on: ADP-induced thrombocyte aggregation; experiment: ADP-induced thrombocyte aggregation, donor human thrombocyte enriched plasm; assay type: cell-based; settings: ADP inductor; for MA, %: human thrombocyte plasm
Experimental: as §1, §2, §3, §4, §5, §6, §7, §8
ADP-induced reversible thrombocyte aggregation test utilized CHRONO-PAR ADP reagent (CHRONO-LOG, USA) with 10 mol concentration. Primary (reversible) thrombocyte aggregation was evaluated by the response on addition of ADP threshold dose (ADP concentration is 1 mol) to plasm.

[3] = tested on: experimental photothrombosis; experiment: Experimental photothrombosis model, arterial blood velocity; assay type: in vivo, Wistar male rats
Experimental: The studies were done on Wistar male rats with mass of 230±30 g (laboratory animals nursery “Rappolovo”, RAMS). The animals were kept with unlimited food (standard ration for laboratory rats K-120 by <<Inform-korm>>, Russia) and water allowance. […]
Thrombosis modeling: the drugs were introduced into left femoral vein, in 50 min afterwards 1 ml of Bengal rose A photosensitizer (Acros Organics, USA) solution was introduced with dose of 17 mg/kg [Boselli 2007, Petrischev 2009]. Then the incision of internal surface of animal right thigh about 2 cm in length was made. The section of the femoral vein about 5 mm in length was released from surrounding tissues and separated from neurovascular bundle. Beneath this section of the vein the black non-transparent plastic strip 3 mm in width was laid to screen off the vein and surrounding tissues from radiation. The irradiation was done using diode laser <<DPSS-laser>> (Diode Pumped Solid State Laser, South Korea) with 532 nm wavelength and 60 mW power. The area of irradiation was 1 mm^2, exposing time was 40 min. The blood flow in femoral artery was measured by high frequency Doppler ultrasonography method (<<Minimax-Doppler-K>> apparatus, frequency of sensor was 20 MHz). The blood velocity alteration due to irradiation was measured (Table 9).

[4] = tested on: thrombocyte depleted plasm coagulation; experiment: Activated partial thromboplastin time (APTT), anticoagulant properties; assay type: biochemical, human; settings: for APTT: thrombocyte depleted plasm
Experimental: as §1, §2, §3
To study anticoagulant properties of N,N′-substituted piperazines activated partial thromboplastin time (APTT) was measured. That is the ability of N,N′-substituted piperazines to increase thrombocyte depleted plasm coagulation time compared to the ability of control sample. The set of reagents for APTT determination (Russian Scientific Research Institute of Hematology and Transfusiology Ministry of Health of Russian Federation by Technical Regulation 9398-214-01966456-99) and COAG-A-MATE® XM coagulometer (ORGANON TEKNIKA, USA) were used.
The solutions of N,N′-substituted piperazines were mixed with thrombocyte depleted plasm at 1:1 ratio, then 0.1 ml of APTT reagent was added, the mixture was incubated in the cuvette for 5 min at 37° C., then 0.1 ml of 0.277% CaCl2 solution was added. The time of coagulation (in seconds) was measured.

[5] = Homo sapiens, 1.25 mmol/L, read-out: (MA0-MAx): MA0 * 100%
[6] = Homo sapiens, 5.0 mmol/L, read-out: (MA0-MAx): MA0 * 100%
[7] = Homo sapiens, 7.5 mmol/L, read-out: (MA0-MAx): MA0 * 100%

O=C(O)/C=C/c1ccc(Cn2ccnc2)cc1 [Ozagrel, reference compound]
MA, % ([1]; 0.5 mmol/L): 74.3 ± 7.9%
MA, % ([1]; 1.25 mmol/L): 64.1 ± 12.0%
MA, % ([1]; 2.5 mmol/L): 60.0 ± 2.5%
MA, % ([1]; 5.0 mmol/L): 54.0 ± 12.9%
MA, % ([1]; 7.5 mmol/L): 34.2 ± 11.2%
inhibition at 500 µM ([1]; Homo sapiens, 0.5 mmol/L, read-out: (MA0-MAx): MA0 * 100%): 3.1%
inhibition at 1250 µM [1, 5]: 16.4%
inhibition at 2500 µM ([1]; Homo sapiens, 2.5 mmol/L, read-out: (MA0-MAx): MA0 * 100%): 21.8%
inhibition at 5000 µM [1, 6]: 29.6%
inhibition at 7500 µM [1, 7]: 55.4%
MA, % ([2]; 1.25 mmol/L): 12.9 ± 2.1%
MA, % ([2]; 2.50 mmol/L): 10.6 ± 2.5%
MA, % ([2]; 5.0 mmol/L): 9.6 ± 2.5%
MA, % ([2]; 7.5 mmol/L): 4.2 ± 1.2%
inhibition at 1250 µM [2, 5]: 2.3%
inhibition at 2500 µM ([2]; Homo sapiens, 2.50 mmol/L, read-out: (MA0-MAx): MA0 * 100%): 19.7%
inhibition at 5000 µM [2, 6]: 63.6%
inhibition at 7500 µM [2, 7]: 68.2%
V, cm/s (arterial blood velocity) ([3]; 0.01 mmol/kg, 0 min of irradiation): 10.9 ± 2.9 cm/s
V, cm/s (arterial blood velocity) ([3]; 0.01 mmol/kg, 10 min of irradiation): 5.7 ± 1.8 cm/s
V, cm/s (arterial blood velocity) ([3]; 0.01 mmol/kg, 20 min of irradiation): Absence of blood flow
V, cm/s (arterial blood velocity) ([3]; 0.01 mmol/kg, 30 min of irradiation): Absence of blood flow
V, cm/s (arterial blood velocity) ([3]; 0.01 mmol/kg, 40 min of irradiation): Absence of blood flow
V, cm/s (arterial blood velocity) ([3]; 0.025 mmol/kg, 0 min of irradiation): 9.0 ± 2.7 cm/s
V, cm/s (arterial blood velocity) ([3]; 0.025 mmol/kg, 10 min of irradiation): 5.1 ± 1.7 cm/s
V, cm/s (arterial blood velocity) ([3]; 0.025 mmol/kg, 20 min of irradiation): 3.8 ± 1.0 cm/s
V, cm/s (arterial blood velocity) ([3]; 0.025 mmol/kg, 30 min of irradiation): 5.5 ± 1.4 cm/s
V, cm/s (arterial blood velocity) ([3]; 0.025 mmol/kg, 40 min of irradiation): 5.8 ± 1.7 cm/s
(APTTx-APTT0): APTT0 * 100% ([4]; 2.5 mmol/L): 7.2%
APTT ([4]; 2.5 mmol/L): 51.8 ± 1.7 s
(APTTx-APTT0): APTT0 * 100% ([4]; 4.1 mmol/L): 10.0%
APTT ([4]; 4.1 mmol/L): 53.1 ± 3.0 s
(APTTx-APTT0): APTT0 * 100% ([4]; 8.3 mmol/L): 19.9%
APTT ([4]; 8.3 mmol/L): 57.9 ± 2.5 s
(APTTx-APTT0): APTT0 * 100% ([4]; 12.5 mmol/L): 29.8%
APTT ([4]; 12.5 mmol/L): 62.7 ± 2.1 s
